Measured values published in patent US8247551B2, “Lead sensor and methods of use” (priority 2007, dated 2012).

Key:
[1] = Apparent dissociation constant for Pb2+ from fluorescence of the complex (Hill fit); format: binding; conditions: pH=10; read-out: apparent dissociation coefficient, Kd, for Pb^2+
From the text: [drawing 8] or the corresponding thiolate compound (i.e., where one or both thiols of the ene-dithiol are deprotonated). In the presence of Pb^2+ ions and a hydrolyzing agent, the dithiocarbonate functionality of compound IV may be hydrolyzed and the resulting fluorescent binder compound binds with the Pb^2+ to form a Pb^2+/binder complex. According to specific embodiments, the fluorescent binder of the present disclosure has a high sensitivity for Pb^2+ ions, even in the presence of other metal ions. […] In other embodiments, the Kd may be less than 300 nM, or in certain embodiments less than 250 nM. […] As will be understood by one of ordinary skill in the art, the Kd for binding of Pb^2+ may vary according to the conditions of the experiment, including, but not limited to solvent, temperature, pH, etc. It should be noted that in other embodiments, other compounds represented by Formula I may also serve as selective binders of lead, or other metal ions.
(§1) All spectroscopic measurements were recorded in a solution of 2.5% methanol (for solubility reason) and water. HPLC grade MeOH and distilled water were used for each measurement. Absorption spectra were measured on a Varian Cary 300 spectrometer. Samples for absorption measurement were performed in 1-cm 1-cm quartz cuvettes (3.5 mL volume, Starna). […]

[2] = Fluorescence quantum yield in reference to fluorescein; format: physicochemical
Procedure: For an acetonitrile solution of fluorophore 7, when excited at […] or 384 nm band, an emission at 411 nm is observed. Similarly when a methanolic solution of fluorophore 7 is excited at 385 nm or 367 nm, an emission at 415 nm is observed. Finally for a solution of fluorophore 7 in the mixed solvent, when excited at 389 nm, an emission is observed at 423 nm (see FIG. 10). A 0.12 value for the quantum yield of fluorophore 7 in methanol was determined in reference to fluorescein in 0.1 M NaOH (φ=0.95) (using the procedure reported by Brannon, et al., J. Phys. Chem. 1978, 82, 705). Fluorophores of the present disclosure are further described in U.S. application Ser. No. 12/020,343, filed Jan. […]
When the fluorescent binder according to the present embodiments binds with Pb^2+ to form a Pb^2+/binder complex, the complex fluoresces with a high optical brightness. For example, according to the present embodiments, the unbound fluorescent binder represented by Formula V (or Formula IV, in its protected form) may have an excitation band with a absorbance maximum λmax at a wavelength centered around 415 nm, an emission band with a emission maximum λmax centered around 465 and a quantum yield for the fluorescence emission of φ=0.12. […] Quantum yields were calculated with reference to the quantum yield of fluorescein (φ=0.95). […]

[3] = Turn-on fluorescence response to Pb2+ (Example 3, FIG. 49); conditions: 5 μM, 2.5% methanol-water; unbound at 465 nm, Pb^2+ complex at 423 nm
From the text: When the fluorescent binder according to the present embodiments binds with Pb^2+ to form a Pb^2+/binder complex, the complex fluoresces with a high optical brightness. For example, according to the present embodiments, the unbound fluorescent binder represented by Formula V (or Formula IV, in its protected form) may have an excitation band with a absorbance maximum λmax at a wavelength centered around 415 nm, an emission band with a emission maximum λmax centered around 465 and a quantum yield for the fluorescence emission of φ=0.12. When the fluorescent binder is bound to Pb^2+ ions, the resulting Pb^2+/binder complex may have an excitation band with a λmax centered around 389 nm, an emission band with a λmax centered around 423 nm, and a quantum yield of φ=0.63. Quantum yields were calculated with reference to the quantum yield of fluorescein (φ=0.95). […]
In this Example, the “turn on” response of the fluorophore corresponding to Formula V (Formula IV in protected form) was determined. The fluorescence emission spectrum of a 5 μM solution of the fluorophore in 2.5% methanol-water was recorded with a maximum emission intensity observed at λmax=465 nm (expanded spectrum shown in the inset in FIG. 49). […] The fluorescence emission spectrum of the resulting Pb^2+/fluorophore complex was recorded with a maximum fluorescence emission intensity observed at λmax=423 nm as presented in FIG. 49.

[4] = Fluorescence emission with Pb2+ versus other metal ions (Example 5, FIG. 51); conditions: 5 μM fluorophore, 75 μM Pb^2+, other metal ion 75 μM or 2 millimolar
From the text: According to certain embodiments, the fluorescent binder discussed herein selectively binds to Pb^2+ over other metal ions including other transition metal ions. According to various embodiments, the fluorescence emission intensity of the Pb^2+/binder complex is greater than a fluorescence emission intensity of other metal ion/binder complexes. Other metal ions that may form a metal ion/binder complex that has a lower fluorescence emission intensity than that of the Pb^2+/binder complex include, but are not limited to Li^+, Na^+, K^+, Ca^2+, Mg^2+, Fe^2+, Co^2+, Ni^2+, Cu^2+, Zn^2+, Cd^2+, Mn^2+, Hg^2+, Sn^2+, As^3+, and mixtures thereof. For example, according to one non-limiting embodiment, the Pb^2+/binder complex in the presence of the other metal ions may have a fluorescence emission intensity at least about 10 times greater than the fluorescence emission intensity of another metal ion/binder complex. In other embodiments, the Pb^2+/binder complex in the presence of the other metal may have a fluorescence emission intensity at least about 20 times greater than the fluorescence emission intensity of another metal ion/binder complex. FIG. 51 compares the fluorescence emission intensity of the Pb^2+/binder complex in the presence of the other metal with the fluorescence emission intensity of the other metal ion/binder complexes (i.e., in the absence of Pb^2+). […]

Solubility = format: physicochemical
From the text: (§2) These fluorophores are soluble in common organic solvents, for example, but not limited to, chloroform, methylene chloride, acetonitrile, and methanol and in mixtures of methanol and water. […] There is a shoulder near […] and no transition was observed beyond 430 nm. The molar extinction coefficients of these bands are near 10000 or higher. […] The spectral features remain unchanged in a mixed solvent such as 2.5% methanol 97.5% water. […] Thus, in principle, this compound can be used as a pH sensor. That is, the fluorescence emission intensity may vary according to the pH of the environment or solution that the fluorophore is in.
In addition, the Pb^2+/binder complex fluoresces with greater emission intensity over a wide pH range in aqueous solutions. According to one embodiment the Pb^2+/binder complex fluoresces with a high fluorescence emission intensity, for example with a quantum yield of greater than 0.5 (φ>0.5), at pH values of 10 or less. […] Thus, the term “high fluorescence emission intensity” means a fluorescence emission intensity having a quantum efficiency of greater than 0.5 (φ>0.5 as measured relative to a fluorescein reference). […] With other fluorophores, the fluorescence emission intensity of the fluorophore may decrease at low pH levels. For comparison, as discussed herein, the quantum yield for fluorescence emission of fluorescein decreases at pH levels less than ˜8.

[5] = Quantitative Pb2+ detection in NIST SRM 1643e Trace Elements in Water; conditions: 1 μM compound, NEt4OH 2:1, 2.5% MeOH and water
Procedure: The fluorescence emission intensity of the Pb^2+/complex in a sample may be measured and compared to a standard calibration plot or values to determine the Pb^2+ ion concentration in the sample. For example, To further examine the sensitivity and accuracy of the sensor, a NIST standard of trace elements in water (SRM® 1643e) in the concentration range of 1-50 ppb Pb^2+ was used and probed with 1 μM of a compound having the structure of Formula IV. In this case, accurate fluorescence responses were observed from 50 ppb to as low as 10 ppb. Further, compound IV was also used in quantitating the concentration of Pb^2+ in solutions prepared from a lead standard (NIST SRM® 3128).
as §1, with “Starna). Fluorescence spectra were measured on a Photon Technology International QuantaMaster™4 spectrofluorometer. Fluorescence measurements were performed in 1-cm 1-cm quartz cuvettes (3.5 mL volume, NSG Precision Cells). Fluorescence quantum yields were determined in reference to fluorescein in 0.1 NaOH (φ=0.95).” for “Starna).”

[6] = Stability in acid and base; format: physicochemical
From the text: as §2

Structure (SMILES): CC1(C)Oc2nc3ccccc3nc2C(S)=C1S [Formula V]
- Kd [1]: 217 nM
- quantum yield for the fluorescence emission ([2]; unbound binder or Pb^2+ complex, reference fluorescein (φ=0.95)): 0.12
- maximum fluorescence emission intensity [3]: ~6000 counts/second
- fluorescence emission intensity with Pb^2+ plus other metal ion versus other metal ion alone [4]: significantly greater fluorescence emission intensity
- solubility in aqueous solution (Solubility): soluble in aqueous solution

Structure (SMILES): CC1(C)Oc2nc3ccccc3nc2-c2sc(=O)sc21 [Compound 7, 4,4-dimethyl-4H-5-oxa-1,3-dithia-6,11-diaza-cyclopenta[a]anthracen-2-one]
- quantum yield ([2]; in methanol, reference fluorescein in 0.1 M NaOH): 0.12
- Pb^2+ range detected quantitatively by increase in fluorescence response [5]: 10-50 ppb
- stability in acid ([6]; acid): stable in acid
- stability in base ([6]; base (pH>7)): transforms into a less fluorescent substance
